Data on five molecules can be found in patent EP0008556A1, “Bis 7H pyridocarbazole derivatives and pharmaceutical compositions containing them” (ANVAR Agence Nationale de Valorisation de la Recherche, priority 1978, dated 1980).

Common to all, as to format: in vivo, souris
In one assay the test system is leucémie L1210. The assay can be described thus: Therapeutic effect on L1210 leukemia in mice, single intraperitoneal injection 24 h after intraperitoneal tumour inoculation. To be noted: for Augmentation survie traitées/contrôle x 100 / Survie moyenne en jours des souris traitées ± erreur standard. / % de cellules tumorales tuées par le traitement: single i.p. injection, inoculum 10^5 L1210 cells; for % de cellules tumorales tuées par le traitement: calculated by Skipper method; for Nombre d'animaux guéris: cured = survival more than 45 days after inoculation; for index chimiothérapeutique: leucémie L1210, read from Table VI; for fraction des cellules survivantes N/No après traitement en fonction de la dose (fraction de la dose infra-létale DLo): figure 2, comparison with dérivé 34 (DIE). The text has this: Afin de tester l'activité antitumorale des composés décrits plus haut, on a utilisé en premier lieu des leucémies murines P388 et L1210. La leucémie P388 est considérée comme très sensible et permet une première sélection. La leucémie L1210 est plus résistante et plus sélective. Une substance ayant une grande activité sur la leucémie L1210 a une grande chance d'être active en clinique humaine (J.M. VENDITTI, Relevance of transplantable animal tumor systems to the Selection of new agents for clinical trial in pharmacologi- cal basis of cancer chemotherapy. The University of Texas ed. Williams and Wilkins, publ. 1975, Baltimore USA) .
D'autre part, la tumeur expérimentale qu'est la leucémie L1210 de la souris est en effet couramment utilisée pour l'évaluation de tous les composés antitumoraux actuellement mis en oeuvre en thérapeutique humaine, ainsi qu'il est décrit, par exemple par C.C. ZUBROD dans Proc. Nat. Acad. Sci. USA 69, 1972, p 1042-1047. Le système tumoral ainsi constitué expérimentalement permet une évaluation quantitative très précise de l'activité du composé testé, et, par conséquent aussi, une comparaison objective entre les activités respectives de différents composés, par exemple selon les méthodes décrites par R.E. SKIPPER, F.M. SCHABEL Jr. et W.S. WILCOX dans Cancer Chemother. Rep., 35, 1964, p 1-111 et 45, 1965, p 5-28.
(§1) En pratique, on a utilisé des souris ayant reçu par voie intrapéritonéale un inoculum de cellules de leucémie L1210 et ayant été, pour la moitié d'entre elles, soumises 24 heures après ladite inoculation tumorale à une injection intrapéritonéale d'une dose unique de l'un des composés à tester : l'autre moitié des souris a reçu une injection d'un volume identique d'un solvant inactif et servait de série témoin. On a réparti les souris au hasard dans chaque série expérimentale. Une première expérimentation de routine a permis de déterminer la mortalité par toxicité et de fixer ainsi les doses infra-létales.
Conformément à la convention en usage dans ce domaine, on considérait comme guéris les animaux qui survivaient plus de 45 jours après l'inoculation de cellules tumorales.
On a ainsi pu déterminer la mortalité par toxicité sous l'effet d'une injection unique de l'un des composés à différentes doses (doses infra-létales, DL 50 et DL 100) et évaluer le taux de survie du groupe d'animaux auxquels on n'avait injecté qu'une dose infra-létale d'un composé selon l'invention.
On a calculé le taux de survie à partir d'une analyse statistique des résultats expérimentaux, par comparaison avec les résultats obtenus avec la série témoin, selon les méthodes bien connues de Mann-Whitey et de Wilcoxon; le pourcentage de cellules leucémiques tuées par le traitement réalisé était calculé par la méthode décrite par H.E. SKIPPER et coll. dans les articles cités plus haut, en prenant pour base, suivant le cas, soit l'augmentation de la survie moyenne en l'absence de survivants, soit le pourcentage de survivants.
Pour l'évaluation de l'activité thérapeutique des composés selon l'invention, on a exprimé les doses dudit composé en les rapportant à la dose infra-létale […], que l'on a posée égale à 1. Cette dose infra-létale s'est en effet avérée plus facile à déterminer pour les composés de l'invention que la DL 10, dont elle est d'ailleurs très voisine et qui est habituellement prise comme référence pour l'évaluation de l'activité thérapeutique de composés à effet antitumoral (voir H.E. SKIPPER et coll., ouvrages cités).

The test system of the next assay is tumeur de Lewis. The assay can be described thus: Survival of mice bearing Lewis tumour, identical protocol. The note with it: same doses.
Text: as §1
(§2) En outre, ces composés présentent une forte activité sur le mélanome B 16 et la tumeur de Lewis, pour les mêmes doses, le protocole étant identique. A titre d'exemple, sur le mélanome B 16, le dérivé 41 augmente de 15 jours la survie des souris traitées; sur la tumeur de Lewis, l'augmentation de survie induite pour ce même dérivé est de 8 jours avec un survivant.

The test system of the next assay is mélanome B 16. The assay can be described thus: Survival of mice bearing B 16 melanoma, identical protocol. The note with it: same doses.
Text: as §1, §2

[1] abbreviates: dose 0.02 of the infra-lethal dose.
The mark [2] stands for this setting: dose 0.1 of the infra-lethal dose.
[3] abbreviates: dose 0.2 of the infra-lethal dose.
[4] abbreviates: dose 0.25 of the infra-lethal dose.
The mark [5] stands for this setting: dose 0.3 of the infra-lethal dose.
[6] abbreviates: dose 0.4 of the infra-lethal dose.
The mark [7] stands for this setting: dose 1/5 of the infra-lethal dose.
The mark [8] stands for this setting: dose 0.04 of the infra-lethal dose.
Where [9] appears, read: dose 0.8 of the infra-lethal dose.

Turning to `COc1ccc2[nH]c3ccc4cc[n+](CCN5CCC(C6CCN(CC[n+]7ccc8ccc9[nH]c%10ccc(OC)cc%10c9c8c7)CC6)CC5)cc4c3c2c1` [Dérivé 34, Dichlorurede 1'1'-bis 2-(2-méthoxy-10,7-H-pyrido[4,3-c]carbazolium)éthy14,4' bispipéridine], the “Augmentation survie traitées/contrôle x 100” value in the assay on leucémie L1210 (setting [1]) amounted to 128; with leucémie L1210 (setting [2]) it was 137; in the assay with leucémie L1210 (setting [3]), 144; with leucémie L1210 (setting [4]), 216; with leucémie L1210 (setting [5]), 191; in the assay with leucémie L1210 (setting [6]), 182. Moreover, the “Survie moyenne en jours des souris traitées ± erreur standard.” value is 12.2 ± 0.9 jours in the assay on leucémie L1210 (setting [1]); 13.6 ± 2.9 jours in the assay on leucémie L1210 (setting [2]); 14.3 ± 2.6 jours in the assay on leucémie L1210 (setting [3]); 18.6 ± 4.5 jours in the assay with leucémie L1210 (setting [4]); 17.6 ± 4.5 jours in the assay on leucémie L1210 (setting [5]); 18.1 ± 4.5 jours in the assay with leucémie L1210 (setting [6]). Also, the “% de cellules tumorales tuées par le traitement” value in the assay with leucémie L1210 (setting [1]) was 98%; in the assay on leucémie L1210 (setting [2]), 94.8%; in the assay with leucémie L1210 (setting [3]), 99.97%; with leucémie L1210 (setting [4]), 99.999%; in the assay with leucémie L1210 (setting [5]) it was 99.999%; in the assay on leucémie L1210 (setting [6]), 99.999%. In the assay with leucémie L1210 (setting [2]), the “Nombre d'animaux guéris” value is 1/15. Besides, in the assay on leucémie L1210 (setting [7]), the “% des cellules leucémiques tuées” value is 99,97%. In the assay with leucémie L1210, the “index chimiothérapeutique” value was “extrêmement élevé”.
On to `Oc1ccc2[nH]c3ccc4cc[n+](CCN5CCC(C6CCN(CC[n+]7ccc8ccc9[nH]c%10ccc(O)cc%10c9c8c7)CC6)CC5)cc4c3c2c1` [Dérivé 40], for which, in the assay with leucémie L1210 (setting [1]), the “Augmentation survie traitées/contrôle x 100” value was found to be 111, the “Survie moyenne en jours des souris traitées ± erreur standard.” value is recorded as 9.4 ± 1.2 jours and the “% de cellules tumorales tuées par le traitement” value is reported as 94%. Further, in the assay with leucémie L1210 (setting [3]), the “Augmentation survie traitées/contrôle x 100” value was determined as 153, the “Survie moyenne en jours des souris traitées ± erreur standard.” value amounted to 12.9 ± 1.5 jours and the “% de cellules tumorales tuées par le traitement” value is reported as 99.47%. For the same molecule, in the assay with leucémie L1210 (setting [6]), the “Augmentation survie traitées/contrôle x 100” value amounted to 167, the “Survie moyenne en jours des souris traitées ± erreur standard.” value is 13.2 ± 1.9 jours and the “% de cellules tumorales tuées par le traitement” value is reported as 99.994%. For the same molecule, the “% des cellules leucémiques tuées” value with leucémie L1210 (setting [7]) is recorded as 99,97%. Moreover, in the assay on leucémie L1210, the “index chimiothérapeutique” value is listed as “extrêmement élevé”.
In the case of `COc1ccc2c(c1)c1c3c[n+](CCN4CCC(C5CCN(CC[n+]6ccc7ccc8c(c7c6)c6cc(OC)ccc6n8C)CC5)CC4)ccc3ccc1n2C` [Dérivé 41, Dichlorurede 1,1' bis 2-(2-méthyl-7-méthoxy-10,7-H-pyrido [4,3-c]carbazolium) éthyl 4,4' bispipéridine], in the assay with tumeur de Lewis, the augmentation de survie came to 8 jours and the survivant result is listed as “un survivant”. In addition, the “augmentation de la survie des souris traitées” value with mélanome B 16 is listed as 15 jours. Further, in the assay with leucémie L1210 (setting [8]), the “Augmentation survie traitées/contrôle x 100” value is recorded as 143, the “Survie moyenne en jours des souris traitées ± erreur standard.” value was found to be 11.9 ± 1.2 jours and the “% de cellules tumorales tuées par le traitement” value is 99.8%. In the assay on leucémie L1210 (setting [6]), the “Nombre d'animaux guéris” value is given as 1/15, the “Augmentation survie traitées/contrôle x 100” value is recorded as 140, the “Survie moyenne en jours des souris traitées ± erreur standard.” value stood at 11.8 ± 0.9 jours and the “% de cellules tumorales tuées par le traitement” value is reported as 99.8%. Besides, in the assay on leucémie L1210 (setting [9]), the “Augmentation survie traitées/contrôle x 100” value worked out at 155, the “Survie moyenne en jours des souris traitées ± erreur standard.” value turned out to be 12.9 ± 1.9 jours and the “% de cellules tumorales tuées par le traitement” value is 99.97%. The “% des cellules leucémiques tuées” value with leucémie L1210 (dose 1/15 of the infra-lethal dose) was 91,8%. For the same molecule, the “index chimiothérapeutique” value in the assay with leucémie L1210 is on record as “extrêmement élevé”.
`O=NN(CCCl)C(=O)NCCCl` [bischloréthylnitrosourée (BCNU), bischloréthylnitrosourée, reference compound]: in the assay on leucémie L1210, the “fraction des cellules survivantes N/No après traitement en fonction de la dose (fraction de la dose infra-létale DLo)” value was “ne sont actives qu'à des doses bien supérieures à celles du dérivé 34”.
Still for that read-out and setting: the entry for `O=P1(N(CCCl)CCCl)NCCCO1` (stereo not shown) [cyclophosphamide, reference compound] is “ne sont actives qu'à des doses bien supérieures à celles du dérivé 34”.
